Assay results as given in the kinase profiling compilation of Christmann-Franck et al. (2016).

How the values were obtained:
Test in all cases: KINOMEscan competition binding
Details in all cases: compound 10.0 µM
[1] = molecular target: ADCK3 (human) (UniProt Q8NI60)
[2] = molecular target: AXL (human) (UniProt P30530)
[3] = molecular target: BMPR1A (human) (UniProt P36894)
[4] = molecular target: BMPR1B (human) (UniProt O00238)
[5] = molecular target: BRSK2 (human) (UniProt Q8IWQ3)
[6] = molecular target: CDC2L2 (human) (UniProt Q9UQ88)
[7] = molecular target: CDK13 (human) (UniProt Q14004)
[8] = molecular target: CDK4 CCND3 (human) (UniProt P11802+P30281)
[9] = molecular target: CIT (human) (UniProt O14578)
[10] = molecular target: CLK1 (human) (UniProt P49759)
[11] = tested on: CPK1 (P.falciparum)
[12] = molecular target: DAPK3 (human) (UniProt O43293)
[13] = molecular target: EPHA3 (human) (UniProt P29320)
[14] = molecular target: EPHA7 (human) (UniProt Q15375)
[15] = molecular target: FGFR4 (human) (UniProt P22455)
[16] = molecular target: FLT4 (human) (UniProt P35916)
[17] = molecular target: HIPK1 (human) (UniProt Q86Z02)
[18] = molecular target: KDR (human) (UniProt P35968)
[19] = molecular target: MAP2K5 (human) (UniProt Q13163)
[20] = molecular target: MAP3K10 (human) (UniProt Q02779)
[21] = molecular target: MAP3K5 (human) (UniProt Q99683)
[22] = molecular target: MAP4K5 (human) (UniProt Q9Y4K4)
[23] = molecular target: MAPK12 (human) (UniProt P53778)
[24] = molecular target: MAPK4 (human) (UniProt P31152)
[25] = molecular target: MAPK7 (human) (UniProt Q13164)
[26] = molecular target: MYLK3 (human) (UniProt Q32MK0)
[27] = molecular target: PAK1 (human) (UniProt Q13153)
[28] = molecular target: PHKG2 (human) (UniProt P15735)
[29] = molecular target: PIK3CA (human) (UniProt P42336)
[30] = molecular target: PIK3CG (human) (UniProt P48736)
[31] = molecular target: PLK1 (human) (UniProt P53350)
[32] = molecular target: PLK2 (human) (UniProt Q9NYY3)
[33] = molecular target: PRKAA1 (human) (UniProt Q13131)
[34] = molecular target: PRKAA2 (human) (UniProt P54646)
[35] = molecular target: PTK6 (human) (UniProt Q13882)
[36] = molecular target: RET (human) (UniProt P07949)
[37] = molecular target: STK11 (human) (UniProt Q15831)
[38] = molecular target: TEC (human) (UniProt P42680)
[39] = molecular target: TIE1 (human) (UniProt P35590)
[40] = molecular target: TNIK (human) (UniProt Q9UKE5)
[41] = molecular target: ZAP70 (human) (UniProt P43403)

Chain of EPHA3 (human) (P29320 whole entry, looked up): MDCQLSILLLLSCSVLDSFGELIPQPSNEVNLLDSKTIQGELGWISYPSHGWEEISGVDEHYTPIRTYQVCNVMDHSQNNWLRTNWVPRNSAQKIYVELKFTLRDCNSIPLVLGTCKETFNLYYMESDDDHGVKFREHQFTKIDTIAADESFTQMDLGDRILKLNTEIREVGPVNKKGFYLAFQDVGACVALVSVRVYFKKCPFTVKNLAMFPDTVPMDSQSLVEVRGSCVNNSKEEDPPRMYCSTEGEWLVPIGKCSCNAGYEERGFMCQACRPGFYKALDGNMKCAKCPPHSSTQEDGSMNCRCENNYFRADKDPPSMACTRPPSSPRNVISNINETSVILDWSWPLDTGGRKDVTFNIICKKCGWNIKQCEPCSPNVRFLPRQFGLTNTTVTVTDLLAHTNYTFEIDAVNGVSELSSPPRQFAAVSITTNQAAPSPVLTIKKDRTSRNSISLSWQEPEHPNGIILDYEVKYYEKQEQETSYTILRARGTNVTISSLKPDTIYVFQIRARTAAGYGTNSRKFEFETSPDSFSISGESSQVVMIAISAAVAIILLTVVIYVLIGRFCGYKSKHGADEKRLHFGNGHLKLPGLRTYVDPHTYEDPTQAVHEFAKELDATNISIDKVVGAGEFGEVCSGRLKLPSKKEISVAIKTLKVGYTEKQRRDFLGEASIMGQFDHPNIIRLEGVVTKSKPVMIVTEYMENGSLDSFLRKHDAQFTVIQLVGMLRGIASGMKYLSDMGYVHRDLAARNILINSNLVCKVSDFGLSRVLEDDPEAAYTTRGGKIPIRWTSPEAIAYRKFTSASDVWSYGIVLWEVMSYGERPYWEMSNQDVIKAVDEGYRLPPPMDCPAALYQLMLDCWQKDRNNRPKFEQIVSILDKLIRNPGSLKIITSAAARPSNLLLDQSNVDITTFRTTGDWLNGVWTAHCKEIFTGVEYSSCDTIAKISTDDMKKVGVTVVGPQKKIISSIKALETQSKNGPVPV
Chain of MAP3K10 (human) (Q02779 whole entry, looked up): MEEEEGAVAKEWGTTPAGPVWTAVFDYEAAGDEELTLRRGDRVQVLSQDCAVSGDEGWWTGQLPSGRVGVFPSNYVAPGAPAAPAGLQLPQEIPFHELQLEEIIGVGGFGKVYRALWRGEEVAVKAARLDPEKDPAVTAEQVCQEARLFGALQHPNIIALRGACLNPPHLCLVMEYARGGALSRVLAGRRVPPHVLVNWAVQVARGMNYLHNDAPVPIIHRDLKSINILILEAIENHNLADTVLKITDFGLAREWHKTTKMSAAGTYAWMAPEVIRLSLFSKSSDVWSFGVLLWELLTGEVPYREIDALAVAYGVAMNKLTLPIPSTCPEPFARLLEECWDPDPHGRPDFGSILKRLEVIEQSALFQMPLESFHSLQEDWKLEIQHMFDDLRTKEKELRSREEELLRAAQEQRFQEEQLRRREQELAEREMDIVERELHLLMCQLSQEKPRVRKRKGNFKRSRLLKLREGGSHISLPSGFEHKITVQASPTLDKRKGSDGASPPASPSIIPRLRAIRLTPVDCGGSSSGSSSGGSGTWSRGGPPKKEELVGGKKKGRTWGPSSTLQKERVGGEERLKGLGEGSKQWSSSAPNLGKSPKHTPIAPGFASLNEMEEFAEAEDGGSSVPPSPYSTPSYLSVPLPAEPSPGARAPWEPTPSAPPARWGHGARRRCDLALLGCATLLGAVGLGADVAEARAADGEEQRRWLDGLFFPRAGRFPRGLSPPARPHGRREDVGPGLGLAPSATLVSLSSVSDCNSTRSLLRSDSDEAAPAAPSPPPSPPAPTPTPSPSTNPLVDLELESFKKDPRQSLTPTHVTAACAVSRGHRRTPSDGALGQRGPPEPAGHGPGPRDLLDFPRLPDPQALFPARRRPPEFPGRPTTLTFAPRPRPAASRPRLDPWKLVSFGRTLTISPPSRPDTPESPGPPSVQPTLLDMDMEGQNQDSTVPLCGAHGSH
Chain of TEC (human) (P42680 whole entry, looked up): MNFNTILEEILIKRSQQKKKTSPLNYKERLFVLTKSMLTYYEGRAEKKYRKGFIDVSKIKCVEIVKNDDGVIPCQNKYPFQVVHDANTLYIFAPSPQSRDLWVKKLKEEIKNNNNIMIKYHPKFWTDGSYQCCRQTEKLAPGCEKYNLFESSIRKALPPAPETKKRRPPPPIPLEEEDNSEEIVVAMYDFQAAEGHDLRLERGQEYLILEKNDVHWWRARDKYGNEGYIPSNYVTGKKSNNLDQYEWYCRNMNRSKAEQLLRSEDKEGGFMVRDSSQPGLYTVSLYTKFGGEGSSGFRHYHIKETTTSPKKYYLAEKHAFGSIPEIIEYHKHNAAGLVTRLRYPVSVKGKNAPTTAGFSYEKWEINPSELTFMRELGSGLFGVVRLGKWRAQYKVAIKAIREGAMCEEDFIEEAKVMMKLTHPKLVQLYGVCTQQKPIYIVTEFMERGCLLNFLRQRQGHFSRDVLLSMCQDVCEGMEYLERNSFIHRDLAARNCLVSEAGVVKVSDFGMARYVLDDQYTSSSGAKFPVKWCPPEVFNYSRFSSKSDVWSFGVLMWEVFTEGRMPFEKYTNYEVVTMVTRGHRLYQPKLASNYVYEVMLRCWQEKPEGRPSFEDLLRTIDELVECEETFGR
Chain of STK11 (human) (Q15831 whole entry, looked up): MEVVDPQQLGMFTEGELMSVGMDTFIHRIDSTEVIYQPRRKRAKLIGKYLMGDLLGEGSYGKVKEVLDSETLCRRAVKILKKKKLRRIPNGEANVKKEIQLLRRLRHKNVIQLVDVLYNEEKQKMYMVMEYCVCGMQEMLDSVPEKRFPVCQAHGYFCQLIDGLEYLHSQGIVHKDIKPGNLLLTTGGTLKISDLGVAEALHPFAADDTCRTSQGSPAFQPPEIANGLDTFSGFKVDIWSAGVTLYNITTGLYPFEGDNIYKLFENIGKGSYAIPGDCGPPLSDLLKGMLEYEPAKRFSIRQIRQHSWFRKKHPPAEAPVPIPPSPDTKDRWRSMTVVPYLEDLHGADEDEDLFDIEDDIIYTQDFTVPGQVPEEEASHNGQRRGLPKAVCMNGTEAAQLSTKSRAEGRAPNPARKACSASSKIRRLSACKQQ
Chain of RET (human) (P07949 whole entry, looked up): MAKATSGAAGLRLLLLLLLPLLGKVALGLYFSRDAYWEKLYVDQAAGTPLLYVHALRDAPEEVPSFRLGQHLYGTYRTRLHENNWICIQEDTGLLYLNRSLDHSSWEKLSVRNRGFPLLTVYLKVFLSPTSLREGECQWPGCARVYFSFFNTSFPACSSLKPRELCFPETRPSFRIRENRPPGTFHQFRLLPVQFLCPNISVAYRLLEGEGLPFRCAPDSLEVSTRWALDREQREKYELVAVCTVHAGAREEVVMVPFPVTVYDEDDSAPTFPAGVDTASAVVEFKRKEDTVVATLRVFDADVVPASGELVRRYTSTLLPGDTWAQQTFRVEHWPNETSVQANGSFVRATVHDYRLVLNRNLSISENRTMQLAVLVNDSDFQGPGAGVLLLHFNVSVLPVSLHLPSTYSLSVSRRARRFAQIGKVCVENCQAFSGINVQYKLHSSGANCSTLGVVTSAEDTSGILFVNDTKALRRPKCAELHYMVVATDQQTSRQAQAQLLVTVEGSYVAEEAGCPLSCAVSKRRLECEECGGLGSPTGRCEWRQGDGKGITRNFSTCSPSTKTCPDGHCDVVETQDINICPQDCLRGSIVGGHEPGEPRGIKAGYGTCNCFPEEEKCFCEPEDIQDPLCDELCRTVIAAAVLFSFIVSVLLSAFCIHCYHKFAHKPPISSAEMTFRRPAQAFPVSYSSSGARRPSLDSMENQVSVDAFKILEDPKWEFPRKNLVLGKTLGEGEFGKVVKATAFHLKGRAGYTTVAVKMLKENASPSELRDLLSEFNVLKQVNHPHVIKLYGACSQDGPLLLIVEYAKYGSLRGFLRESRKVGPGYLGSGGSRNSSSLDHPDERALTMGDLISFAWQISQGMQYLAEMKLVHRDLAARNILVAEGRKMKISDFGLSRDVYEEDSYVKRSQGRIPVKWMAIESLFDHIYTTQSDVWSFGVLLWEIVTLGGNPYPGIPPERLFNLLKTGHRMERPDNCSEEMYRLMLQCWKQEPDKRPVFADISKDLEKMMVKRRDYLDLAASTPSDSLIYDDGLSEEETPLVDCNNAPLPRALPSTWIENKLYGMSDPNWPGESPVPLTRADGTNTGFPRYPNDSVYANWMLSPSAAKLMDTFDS
Chain of DAPK3 (human) (O43293 whole entry, looked up): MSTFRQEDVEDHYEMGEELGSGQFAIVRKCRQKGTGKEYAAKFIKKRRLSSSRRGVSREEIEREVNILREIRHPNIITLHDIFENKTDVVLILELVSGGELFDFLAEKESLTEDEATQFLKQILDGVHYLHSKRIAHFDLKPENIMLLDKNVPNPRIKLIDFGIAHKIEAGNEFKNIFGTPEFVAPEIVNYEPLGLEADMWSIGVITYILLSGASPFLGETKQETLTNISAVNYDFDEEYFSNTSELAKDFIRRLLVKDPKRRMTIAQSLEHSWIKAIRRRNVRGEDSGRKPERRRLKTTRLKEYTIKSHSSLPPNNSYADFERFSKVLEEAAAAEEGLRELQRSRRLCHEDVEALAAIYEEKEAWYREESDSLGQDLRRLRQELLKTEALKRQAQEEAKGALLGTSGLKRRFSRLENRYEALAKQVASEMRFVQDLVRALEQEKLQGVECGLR
Chain of CLK1 (human) (P49759 whole entry, looked up): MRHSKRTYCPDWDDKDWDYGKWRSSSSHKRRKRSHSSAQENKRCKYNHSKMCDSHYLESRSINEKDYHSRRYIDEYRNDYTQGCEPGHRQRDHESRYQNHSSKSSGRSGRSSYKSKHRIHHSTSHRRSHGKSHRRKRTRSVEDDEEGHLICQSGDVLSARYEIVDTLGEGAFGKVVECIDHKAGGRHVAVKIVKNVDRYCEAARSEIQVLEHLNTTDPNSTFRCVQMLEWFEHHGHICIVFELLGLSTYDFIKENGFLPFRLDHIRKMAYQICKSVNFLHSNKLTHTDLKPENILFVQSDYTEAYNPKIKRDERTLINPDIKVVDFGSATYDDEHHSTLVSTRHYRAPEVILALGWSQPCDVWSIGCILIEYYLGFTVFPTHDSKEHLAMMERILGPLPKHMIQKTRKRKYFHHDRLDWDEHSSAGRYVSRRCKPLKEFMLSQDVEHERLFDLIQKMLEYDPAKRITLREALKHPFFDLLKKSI

CCN1CCN(C(=O)Cc2ccc(Nc3ncc(F)c(Nc4ccc(C(=O)Nc5ccccc5Cl)cc4)n3)cc2)CC1
kinase still bound, per cent of control [1]: 43%
kinase still bound, per cent of control [2]: 2.1%
kinase still bound, per cent of control [3]: 3.3%
kinase still bound, per cent of control [4]: 22%
kinase still bound, per cent of control [5]: 82%
kinase still bound, per cent of control [6]: 95%
kinase still bound, per cent of control [7]: 100%
kinase still bound, per cent of control [8]: 21%
kinase still bound, per cent of control [9]: 27%
kinase still bound, per cent of control [10]: 22%
kinase still bound, per cent of control [11]: 29%
kinase still bound, per cent of control [12]: 5.2%
kinase still bound, per cent of control [13]: 62%
kinase still bound, per cent of control [14]: 55%
kinase still bound, per cent of control [15]: 71%
kinase still bound, per cent of control [16]: 7.6%
kinase still bound, per cent of control [17]: 3.2%
kinase still bound, per cent of control [18]: 16%
kinase still bound, per cent of control [19]: 9.8%
kinase still bound, per cent of control [20]: 7.2%
kinase still bound, per cent of control [21]: 100%
kinase still bound, per cent of control [22]: 64%
kinase still bound, per cent of control [23]: 100%
kinase still bound, per cent of control [24]: 82%
kinase still bound, per cent of control [25]: 100%
kinase still bound, per cent of control [26]: 100%
kinase still bound, per cent of control [27]: 53%
kinase still bound, per cent of control [28]: 42%
kinase still bound, per cent of control [29]: 83%
kinase still bound, per cent of control [30]: 65%
kinase still bound, per cent of control [31]: 94%
kinase still bound, per cent of control [32]: 88%
kinase still bound, per cent of control [33]: 32%
kinase still bound, per cent of control [34]: 39%
kinase still bound, per cent of control [35]: 16%
kinase still bound, per cent of control [36]: 1.8%
kinase still bound, per cent of control [37]: 12%
kinase still bound, per cent of control [38]: 42%
kinase still bound, per cent of control [39]: 10%
kinase still bound, per cent of control [40]: 45%
kinase still bound, per cent of control [41]: 100%

O=C1NC(=O)/C(=C/c2ccc3nccc(-c4ccncc4)c3c2)S1
kinase still bound, per cent of control [1]: 93%
kinase still bound, per cent of control [2]: 7.6%
kinase still bound, per cent of control [3]: 2%
kinase still bound, per cent of control [4]: 3.7%
kinase still bound, per cent of control [5]: 91%
kinase still bound, per cent of control [6]: 85%
kinase still bound, per cent of control [7]: 95%
kinase still bound, per cent of control [8]: 100%
kinase still bound, per cent of control [9]: 4.4%
kinase still bound, per cent of control [10]: 0%
kinase still bound, per cent of control [11]: 11%
kinase still bound, per cent of control [12]: 0.6%
kinase still bound, per cent of control [13]: 75%
kinase still bound, per cent of control [14]: 88%
kinase still bound, per cent of control [15]: 59%
kinase still bound, per cent of control [16]: 98%
kinase still bound, per cent of control [17]: 6.9%
kinase still bound, per cent of control [18]: 81%
kinase still bound, per cent of control [19]: 46%
kinase still bound, per cent of control [20]: 60%
kinase still bound, per cent of control [21]: 58%
kinase still bound, per cent of control [22]: 41%
kinase still bound, per cent of control [23]: 56%
kinase still bound, per cent of control [24]: 100%
kinase still bound, per cent of control [25]: 59%
kinase still bound, per cent of control [26]: 6.2%
kinase still bound, per cent of control [27]: 86%
kinase still bound, per cent of control [28]: 6%
kinase still bound, per cent of control [29]: 0.05%
kinase still bound, per cent of control [30]: 0%
kinase still bound, per cent of control [31]: 26%
kinase still bound, per cent of control [32]: 29%
kinase still bound, per cent of control [33]: 88%
kinase still bound, per cent of control [34]: 93%
kinase still bound, per cent of control [35]: 87%
kinase still bound, per cent of control [36]: 98%
kinase still bound, per cent of control [37]: 12%
kinase still bound, per cent of control [38]: 73%
kinase still bound, per cent of control [39]: 100%
kinase still bound, per cent of control [40]: 36%
kinase still bound, per cent of control [41]: 93%

NC(=O)Nc1cc(-c2cccc(F)c2)sc1C(=O)N[C@@H]1CCCNC1
kinase still bound, per cent of control [1]: 93%
kinase still bound, per cent of control [2]: 0%
kinase still bound, per cent of control [3]: 0.4%
kinase still bound, per cent of control [4]: 0.1%
kinase still bound, per cent of control [5]: 2.8%
kinase still bound, per cent of control [6]: 100%
kinase still bound, per cent of control [7]: 100%
kinase still bound, per cent of control [8]: 92%
kinase still bound, per cent of control [9]: 0.2%
kinase still bound, per cent of control [10]: 1.2%
kinase still bound, per cent of control [11]: 0.1%
kinase still bound, per cent of control [12]: 2.9%
kinase still bound, per cent of control [13]: 0.2%
kinase still bound, per cent of control [14]: 0.1%
kinase still bound, per cent of control [15]: 13%
kinase still bound, per cent of control [16]: 0%
kinase still bound, per cent of control [17]: 7.2%
kinase still bound, per cent of control [18]: 0.05%
kinase still bound, per cent of control [19]: 0.05%
kinase still bound, per cent of control [20]: 1.2%
kinase still bound, per cent of control [21]: 40%
kinase still bound, per cent of control [22]: 0.4%
kinase still bound, per cent of control [23]: 89%
kinase still bound, per cent of control [24]: 61%
kinase still bound, per cent of control [25]: 80%
kinase still bound, per cent of control [26]: 10%
kinase still bound, per cent of control [27]: 1.2%
kinase still bound, per cent of control [28]: 1.6%
kinase still bound, per cent of control [29]: 100%
kinase still bound, per cent of control [30]: 100%
kinase still bound, per cent of control [31]: 33%
kinase still bound, per cent of control [32]: 40%
kinase still bound, per cent of control [33]: 0.2%
kinase still bound, per cent of control [34]: 0.35%
kinase still bound, per cent of control [35]: 1.4%
kinase still bound, per cent of control [36]: 0%
kinase still bound, per cent of control [37]: 4.8%
kinase still bound, per cent of control [38]: 0.4%
kinase still bound, per cent of control [39]: 7.2%
kinase still bound, per cent of control [40]: 0.1%
kinase still bound, per cent of control [41]: 0%
